In patent publication US11020398B2, “Amino-pyrrolopyrimidinone compounds and methods of use thereof” (ArQule, Inc., priority 2016, dated 2021):

What was measured:
[1] = target: full-length activated BTK (wildtype) (Homo sapiens (Human), UniProt Q06187); test: AlphaScreen assay, wild-type BTK; type: biochemical; conditions: for inhibition at 10 µM: read-out: BTK % @ 10 uM, @ 10 uM
Experimental: (§1) The activated BTK was frozen in 50 μl aliquots (125-150 μg/ml).
(§2) BTK activity was assayed using a PLCγ2-derived biotinylated peptide substrate (biotin-[…]-OH) and AlphaScreen™ (Amplified Luminescent Proximity Homogeneous Assay) technology. The extent of peptide phosphorylation was determined by using acceptor beads conjugated to phosphotyrosine antibody that recognized the phosphorylated peptide and donor beads conjugated to streptavidin that binds to the biotin on the peptide. Excitation of the donor beads converted ambient oxygen to excited singlet oxygen which when in close proximity to acceptor beads, reacted with acceptor beads resulting in signal amplification.
(§3) Test inhibitors and controls were prepared in 10% DMSO at 10-fold the desired final concentration and added to each well of a reaction plate (Corning 96-well half-area solid white nonbinding surface plate) in a volume of 2.5 μl. […] The plate was incubated for 120 min at room temperature and the reaction stopped by the addition of 10 μl stop/detection mixture containing 35 mM EDTA, 50 ug/ml AlphaScreen™ Streptavidin Donor beads (final concentration is 500 ng/well) and AlphaScreen™ Phospho-tyrosine (P-Tyr-100) Acceptor beads (final concentration is 500 ng/well) under green light conditions. The plate was incubated overnight at room temperature in the dark and the plates read on the BMG PolarStar Omega ([…], Gain=4000). Data were archived and analyzed with a 4-parameter fit to generate IC50 values using the CDD Vault from Collaborative Drug Discovery.

[2] = target: full-length activated BTK mutant C481S (Homo sapiens (Human), UniProt Q06187, C481S); test: AlphaScreen assay, BTK mutant C481S; type: biochemical; conditions: for inhibition at 10 µM: read-out: BTK-C481S % @ 10 uM, @ 10 uM
full-length activated BTK mutant C481S, sequence (Q06187 whole entry C481S): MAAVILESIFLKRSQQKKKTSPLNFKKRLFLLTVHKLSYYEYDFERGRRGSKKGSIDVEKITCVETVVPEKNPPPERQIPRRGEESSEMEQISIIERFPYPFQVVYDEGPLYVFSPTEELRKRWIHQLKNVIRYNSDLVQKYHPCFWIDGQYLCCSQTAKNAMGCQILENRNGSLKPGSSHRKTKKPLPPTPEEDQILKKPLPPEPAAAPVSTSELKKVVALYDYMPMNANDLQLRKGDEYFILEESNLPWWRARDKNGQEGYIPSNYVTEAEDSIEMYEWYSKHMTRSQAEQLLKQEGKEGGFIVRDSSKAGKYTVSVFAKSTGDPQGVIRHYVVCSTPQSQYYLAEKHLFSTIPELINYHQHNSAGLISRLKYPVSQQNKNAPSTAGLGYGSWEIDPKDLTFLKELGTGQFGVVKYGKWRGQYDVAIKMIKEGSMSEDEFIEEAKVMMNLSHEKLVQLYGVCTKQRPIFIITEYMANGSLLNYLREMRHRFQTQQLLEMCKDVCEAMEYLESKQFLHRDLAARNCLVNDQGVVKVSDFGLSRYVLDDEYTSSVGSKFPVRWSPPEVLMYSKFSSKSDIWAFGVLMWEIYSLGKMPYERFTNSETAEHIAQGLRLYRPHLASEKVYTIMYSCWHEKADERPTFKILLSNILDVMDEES
Experimental: as §1, §2, §3

full-length activated BTK (wildtype), sequence (Q06187 whole entry): as the sequence (Q06187 whole entry C481S) above, with S481C counted along it

IC50 [1] [nM]	inhibition at 10 µM [2] [%]	IC50 [2] [nM]	inhibition at 10 µM [1] [%]	Compound
	50		77	Cn1cc(NC(=O)c2ccc(C(=O)c3c[nH]c4ncnc(N[C@@H]5CC[C@@H](CO)OC5)c34)cc2)cn1 [Compound I-633, 4-(4-(((3R,6S)-6-(hydroxymethyl)tetrahydro-2H-pyran-3-yl)amino)-7H-pyrrolo[2,3-d]pyrimidine-5-carbonyl)-N-(1-methyl-1H-pyrazol-4-yl)benzamide]
620		690		O=C(Nc1ccccc1)c1cccc(C(=O)c2c[nH]c3ncnc(N[C@@H]4CC[C@@H](CO)OC4)c23)c1 [Compound I-634, 3-(4-(((3R,6S)-6-(hydroxymethyl)tetrahydro-2H-pyran-3-yl)amino)-7H-pyrrolo[2,3-d]pyrimidine-5-carbonyl)-N-phenylbenzamide]
	49		73	O=C(c1cccc(C(=O)N2CCOCC2)c1)c1c[nH]c2ncnc(N[C@@H]3CC[C@@H](CO)OC3)c12 [Compound I-635, (4-(((3R,6S)-6-(hydroxymethyl)tetrahydro-2H-pyran-3-yl)amino)-7H-pyrrolo[2,3-d]pyrimidin-5-yl)(3-(morpholine-4-carbonyl)phenyl) methanone]
	41		62	COCCNC(=O)c1ccc(C(=O)c2c[nH]c3ncnc(N[C@@H]4CC[C@@H](CO)OC4)c23)cc1 [Compound I-636, 4-(4-(((3R,6S)-6-(hydroxymethyl)tetrahydro-2H-pyran-3-yl)amino)-7H-pyrrolo[2,3-d]pyrimidine-5-carbonyl)-N-(2-methoxyethyl)benzamide]
	55		76	COCCNC(=O)c1cccc(C(=O)c2c[nH]c3ncnc(N[C@@H]4CC[C@@H](CO)OC4)c23)c1 [Compound I-637, 3-(4-(((3R,6S)-6-(hydroxymethyl)tetrahydro-2H-pyran-3-yl)amino)-7H-pyrrolo[2,3-d]pyrimidine-5-carbonyl)-N-(2-methoxyethyl)benzamide]
	54		63	Cn1cc(NC(=O)c2cccc(C(=O)c3c[nH]c4ncnc(N[C@@H]5CC[C@@H](CO)OC5)c34)c2)cn1 [Compound I-638, 3-(4-(((3R,6S)-6-(hydroxymethyl)tetrahydro-2H-pyran-3-yl)amino)-7H-pyrrolo[2,3-d]pyrimidine-5-carbonyl)-N-(1-methyl-1H-pyrazol-4-yl)benzamide]

Second part, the compound before the results:

Compound	IC50 [1] [nM]	inhibition at 10 µM [2] [%]	IC50 [2] [nM]	inhibition at 10 µM [1] [%]
O=C(NC1CC2(COC2)C1)c1ccc(C(=O)c2c[nH]c3ncnc(N[C@@H]4CC[C@@H](CO)OC4)c23)c(Cl)c1 [Compound I-621, 3-chloro-4-(4-(((3R,6S)-6-(hydroxymethyl)tetrahydro-2H-pyran-3-yl)amino)-7H-pyrrolo[2,3-d]pyrimidine-5-carbonyl)-N-(2-oxaspiro[3.3]heptan-6-yl)benzamide]	571	85		
CN1CCN(C(=O)c2ccc(Cl)c(C(=O)c3c[nH]c4ncnc(N[C@@H]5CC[C@@H](CO)OC5)c34)c2)CC1 [Compound I-622, (4-chloro-3-(4-(((3R,6S)-6-(hydroxymethyl)tetrahydro-2H-pyran-3-yl)amino)-7H-pyrrolo[2,3-d]pyrimidine-5-carbonyl)phenyl)(4-methylpiperazin-1-yl)methanone]	847	62		
O=C(c1cc(C(=O)N2CCCCC2)ccc1Cl)c1c[nH]c2ncnc(N[C@@H]3CC[C@@H](CO)OC3)c12 [Compound I-623, (4-chloro-3-(4-(((3R,6S)-6-(hydroxymethyl)tetrahydro-2H-pyran-3-yl)amino)-7H-pyrrolo[2,3-d]pyrimidine-5-carbonyl)phenyl)(piperidin-1-yl)methanone]	124		185	
COCCNC(=O)c1ccc(Cl)c(C(=O)c2c[nH]c3ncnc(N[C@@H]4CC[C@@H](CO)OC4)c23)c1 [Compound I-624, 4-chloro-3-(4-(((3R,6S)-6-(hydroxymethyl)tetrahydro-2H-pyran-3-yl)amino)-7H-pyrrolo[2,3-d]pyrimidine-5-carbonyl)-N-(2-methoxyethyl) benzamide]	1210	53		
O=C(c1cc(C(=O)N2CCc3ccccc3C2)ccc1Cl)c1c[nH]c2ncnc(N[C@@H]3CC[C@@H](CO)OC3)c12 [Compound I-625, (4-chloro-3-(4-(((3R,6S)-6-(hydroxymethyl)tetrahydro-2H-pyran-3-yl)amino)-7H-pyrrolo[2,3-d]pyrimidine-5-carbonyl)phenyl)(3,4-dihydroisoquinolin-2(1H)-yl)methanone]	110		170	
O=C(NCCN1CCOCC1)c1ccc(Cl)c(C(=O)c2c[nH]c3ncnc(N[C@@H]4CC[C@@H](CO)OC4)c23)c1 [Compound I-626, 4-chloro-3-(4-(((3R,6S)-6-(hydroxymethyl)tetrahydro-2H-pyran-3-yl)amino)-7H-pyrrolo[2,3-d]pyrimidine-5-carbonyl)-N-(2-morpholinoethyl) benzamide]	164		757	
O=C(c1cc(C(=O)N2CCN(c3ccccn3)CC2)ccc1Cl)c1c[nH]c2ncnc(N[C@@H]3CC[C@@H](CO)OC3)c12 [Compound I-627, (4-chloro-3-(4-(((3R,6S)-6-(hydroxymethyl)tetrahydro-2H-pyran-3-yl)amino)-7H-pyrrolo[2,3-d]pyrimidine-5-carbonyl)phenyl)(4-(pyridin-2-yl)piperazin-1-yl)methanone]	777		664	
O=C(NCc1ccccc1)c1ccc(Cl)c(C(=O)c2c[nH]c3ncnc(N[C@@H]4CC[C@@H](CO)OC4)c23)c1 [Compound I-628, N-benzyl-4-chloro-3-(4-(((3R,6S)-6-(hydroxymethyl)tetrahydro-2H-pyran-3-yl)amino)-7H-pyrrolo[2,3-d]pyrimidine-5-carbonyl)benzamide]	59.7		161	
Cn1cc(NC(=O)c2ccc(Cl)c(C(=O)c3c[nH]c4ncnc(N[C@@H]5CC[C@@H](CO)OC5)c34)c2)cn1 [Compound I-629, 4-chloro-3-(4-(((3R,6S)-6-(hydroxymethyl)tetrahydro-2H-pyran-3-yl)amino)-7H-pyrrolo[2,3-d]pyrimidine-5-carbonyl)-N-(1-methyl-1H-pyrazol-4-yl)benzamide]	89.5		804	
N#Cc1cccc(NC(=O)c2ccc(Cl)c(C(=O)c3c[nH]c4ncnc(N[C@@H]5CC[C@@H](CO)OC5)c34)c2)c1 [Compound I-630, 4-chloro-N-(3-cyanophenyl)-3-(4-(((3R,6S)-6-(hydroxymethyl)tetrahydro-2H-pyran-3-yl)amino)-7H-pyrrolo[2,3-d]pyrimidine-5-carbonyl)benzamide]	18.4		189	
O=C(Nc1ccccc1)c1ccc(Cl)c(C(=O)c2c[nH]c3ncnc(N[C@@H]4CC[C@@H](CO)OC4)c23)c1 [Compound I-631, 4-chloro-3-(4-(((3R,6S)-6-(hydroxymethyl)tetrahydro-2H-pyran-3-yl)amino)-7H-pyrrolo[2,3-d]pyrimidine-5-carbonyl)-N-phenylbenzamide]	52.1		177	
O=C(c1ccc(C(=O)N2CCOCC2)cc1)c1c[nH]c2ncnc(N[C@@H]3CC[C@@H](CO)OC3)c12 [Compound I-632, (4-(((3R,6S)-6-(hydroxymethyl)tetrahydro-2H-pyran-3-yl)amino)-7H-pyrrolo[2,3-d]pyrimidin-5-yl)(4-(morpholine-4-carbonyl)phenyl) methanone]		66		84
